Reference: US8986733B2, “Materials and methods for nerve repair” (University of Florida Research Foundation, Inc., priority 2001, dated 2015)
Entries after “also recorded” stand apart in the source; their conditions may differ.

Experiments:
[1] = tested on: embryonic chick DRG neurons; assay: Cryoculture assay of nerve explant cultures (predegeneration); format: cell-based; conditions: 2-day, 2% serum culture with GM6001 (50 μM); 68% without
Source text: Nerve explant culture for predegeneration experiments. Adult (180-200 gm) female SPRAGUE DAWLEY rats (HARLAN, Indianapolis, Ind.) were used as nerve donors and graft recipients. This project was reviewed and approved by the Institutional Animal Care and Use Committee. Donor rats were deeply anesthetized with isofluorane and decapitated. Sciatic nerves were exposed through a gluteal muscle-splitting incision and isolated free of underlying fascia. A 15-mm nerve segment was excised rostral to the bifurcation into common peroneal and tibial nerves. The segments were rinsed with sterile Ringer's solution and stabilized by pinning the ends to a thin plastic support. […]
Cryoculture bioassay. […] Neurite lengths were measured directly using IMAGE-PRO PLUS software (MEDIA CYBERNETICS, Silver Springs, Md.). At least 250 neurons with neurites greater than one cell body (˜15 μm) were scored for each condition in each experiment.
Freshly excised (cellular) rat sciatic nerve segments were cultured for up to 7 days in medium containing 0, 2 and 10% fetal bovine serum. Control (uncultured) and cultured nerves were cryosectioned and their neurite-promoting activity was assessed by cryoculture assay. […]

[2] = tested on: cells of cultured nerve segments; assay: Dissociation culture (squash preparations) of nerve segments; format: cell-based, rat; conditions: nerve segments cultured 2 days with and without GM6001
[3] = tested on: MMP gelatinolytic activity; assay: In situ zymography of cultured nerve explants; format: biochemical, rat; conditions: nerves cultured 2-day, 2% serum in presence of GM6001
Experimental: In situ zymography for nerve predegeneration experiments. Cryosections (10 μm) of unfixed normal and cultured nerves were mounted on slides and overlaid with reaction buffer (50 mM Tris-HCl, 150 mM NaCl, 5 mM CaCl2, 0.2 mM sodium azide, pH 7.6) containing 20 μg/ml of intramolecularly quenched, fluorescein-labeled gelatin substrate (MOLECULAR PROBES INC., Eugene, Oreg.) (Oh et al., 1999). In the control condition, the MMP inhibitor EDTA (30 mM) was included in the reaction buffer. After incubation for 24 h at 37° C., the sections were rinsed with PBS and fixed with 4% paraformaldehyde in phosphate buffer. The sections were rinsed with water and mounted using Citifluor. Fluorescein-gelatin peptides generated by gelatinolytic activity in the tissue sections were observed and photographed by epifluorescence microscopy.
The activity of MMPs is regulated by gene transcription, proenzyme activation and by the action of tissue inhibitors of metalloproteinases. The net gelatinolytic activity in nerve segments by in situ zymography was examined. Tissue sections were overlaid with quenched, fluorescein-gelatin, which is converted to fluorescent peptides by gelatinolytic activity within tissues. Constitutive gelatinolytic activity was detected in normal nerve mostly associated with Schwann cells aligned along the endoneurial basal lamina (as shown in FIGS. 17A and 17B). […]

SMILES: CNC(=O)[C@H](Cc1c[nH]c2ccccc12)NC(=O)[C@@H](CC(=O)NO)CC(C)C [GM6001]
- increase in neurite length over control nerves for nerves cultured in presence of inhibitor [1]: 14%
- cell viability (cell outgrowth) [2]: no loss of cell viability
- gelatinolytic activity in treated nerve explants [3]: nearly undetectable; also recorded: markedly decreased
